Experimental data taken from PubChem BioAssay (NCI).
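Growth conditions: 96-well plates. Treatment: test compound, 48 hours, 5 concentrations. Analysis: linear interpolation between bracketing concentrations; unreached endpoints set to highest concentration. GI50 = concentration required for 50% inhibition of growth. Definition used: TGI = concentration required for complete inhibition of growth.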

What was measured:
Assay in all cases: NCI anticancer screen, dose series, 48 h
[1] = system: 786-0 renal
[2] = system: A498 renal
[3] = system: HCC-2998 colon
[4] = system: HS 578T breast
[5] = system: NCI/ADR-RES ovarian
[6] = system: SK-MEL-2 melanoma
[7] = system: SK-OV-3 ovarian
[8] = system: SNB-19 CNS
[9] = system: TK-10 renal
[10] = system: UACC-257 melanoma

SMILES | TGI [1] [µM] | TGI [2] [µM] | TGI [3] [µM] | TGI [4] [µM] | TGI [5] [µM] | TGI [6] [µM] | TGI [7] [µM] | TGI [8] [µM] | TGI [9] [µM] | TGI [10] [µM] | GI50 [2] [µM] | GI50 [3] [µM] | GI50 [7] [µM]
Cc1ccsc1C(=S)Nc1ccc(Cl)c(C(=O)OC(C(C)C)C(C)C)c1 | > 100 | > 100 | > 100 | > 100 | > 100 | 25.8 | > 100 | 91.7 | > 100 | > 100 | – | – | –
COP(=O)(CC(=O)C1OC(OCc2ccccc2)C(OCc2ccccc2)C(OCc2ccccc2)C1OCc1ccccc1)OC (configuration not stated) | > 100 | – | 19.2 | > 100 | 90.2 | 11 | > 100 | > 100 | 79.8 | 43.9 | – | – | –
COc1cc(OC)c(C2c3cc4c(cc3OC(N3CCOCC3)C2C)OCO4)c(OC)c1 (configuration not stated) | > 100 | – | > 100 | 20.5 | > 100 | > 100 | – | > 100 | > 100 | > 100 | – | – | –
COc1cc2c(cc1OCCCOc1cc3c(cc1OC)C(=O)N1CCC[C@H]1CN3)N=C[C@@H]1CCCN1C2=O | 2.18 | 0.668 | 0.468 | – | 24.8 | 0.365 | > 100 | > 100 | 0.554 | 0.516 | 0.262 | 0.172 | –
CN1c2ccccc2C(=O)NC12CCN(CC1COc3ccccc3O1)CC2 (configuration not stated) | > 100 | 98.4 | > 100 | > 100 | > 100 | – | > 100 | > 100 | > 100 | > 100 | – | – | –
O=C(c1ccccc1)[C@H]1Nc2cnccc2C2c3ccccc3CC21 (some centres not stated) | > 67 | 75.4 | > 100 | – | – | 29.9 | 44.8 | > 100 | > 81.9 | 26.1 | – | – | –
FC(F)=C(c1ccc(-c2ccc(Cl)cc2)cc1)C(F)(F)F | 37.8 | 31.9 | – | 68.7 | 63.8 | 42.5 | 41.2 | 36.9 | 29.4 | 37.5 | – | – | –
CCN(C(=O)N[C@H](C(=O)N[C@@H](C)C(=O)OC)C(C)C)c1ccccc1 | 92.4 | > 100 | 33 | > 100 | > 100 | 78.3 | > 100 | > 100 | 98.6 | 41.8 | – | – | –
Cc1ccc2c(c1)C(=O)/C(=C\c1ccc(Cl)cc1)CCS2(=O)=O | 3.49 | 26.4 | 5.43 | > 31.5 | 5.52 | 61 | 22.4 | 6.82 | 5.11 | 7.23 | – | – | –
CCOP(=O)(OCC)c1cc(-c2ccccc2)ccc1N | > 100 | > 100 | > 100 | > 100 | > 100 | > 100 | > 100 | > 100 | > 100 | > 100 | – | – | –
O=S1(=O)c2ccccc2NC(=S)N1c1ccccc1 | > 100 | > 94.5 | 98.4 | > 100 | > 100 | > 100 | > 100 | > 100 | > 100 | > 89.2 | – | – | –
Cc1ccc(C(=O)c2[nH]c(Nc3cc(C)ccn3)c(C(=S)Nc3ccccc3)c2N)cc1 | > 100 | > 100 | > 100 | > 100 | > 100 | > 100 | > 100 | > 100 | > 100 | > 100 | – | – | –
C=C1CC2C(=O)N(c3ccccc3)C(=O)C2CC1n1[nH]c(=O)n(Cc2ccccc2)c1=O (configuration not stated) | > 100 | > 100 | > 100 | – | – | > 100 | > 100 | > 100 | > 100 | > 100 | – | – | –
COC(=O)C(=O)C(C(=O)C(=O)Nc1cc([N+](=O)[O-])ccc1C#N)c1nc2ccccc2[nH]c1=O (configuration not stated) | > 100 | – | > 100 | – | – | – | > 100 | > 100 | > 100 | > 100 | – | – | –
CC1=NC(C)(C)N(O)C1(C)C | > 100 | > 100 | > 100 | – | > 100 | > 100 | > 100 | > 100 | > 100 | – | – | – | –
CC1(C)OC(=O)C=C([O-])O1.CC1(C)OC(=O)C=C([O-])O1.O=c1c(O)c(-c2ccc([O-])cc2[O-])oc2cc(O)cc(O)c12.[Ti+4] | > 100 | > 100 | – | – | – | 67.5 | > 100 | > 100 | > 100 | > 100 | 58.1 | – | 83.1
CCOC(=O)c1c(NC(=S)Nc2ccc(C)cc2)sc2c1CCN(C)C2 | > 100 | > 100 | – | > 100 | > 100 | > 100 | – | > 100 | > 100 | > 100 | – | – | –
COC(=O)c1sc2ncc3c(c2c1N)CC(C)CC3 (configuration not stated) | > 100 | > 100 | > 100 | – | > 100 | > 100 | > 100 | > 100 | > 100 | > 100 | – | – | –
COC(=O)/C=C\S/C(=C(/c1ccccc1)n1ccc(C(=O)OC)n1)c1ccccc1 | 36.6 | – | > 100 | 48 | > 100 | 59.5 | 50.8 | 42.2 | > 100 | > 100 | – | – | –
CCNC(=S)N/N=C/c1ccccn1 | > 100 | 36.8 | – | > 100 | > 100 | > 100 | > 100 | > 100 | > 100 | > 100 | – | – | –
O=c1cc(-c2ccccc2F)[nH]c2cc3c(cc12)OCO3 | 28.8 | 2.13 | 0.399 | – | 0.246 | > 100 | 14.2 | 6.95 | 98.2 | > 77.5 | – | – | –
N#CC(C#N)=Cc1cccc(Oc2ccccc2)c1 | 34.2 | > 100 | > 62.8 | – | – | 49 | > 100 | 59.4 | > 70.6 | 28.1 | – | – | –
